Test results published in the supplement of paper PMC11208160.

Assay: recombinant barcode read abundance after kanamycin selection (control-corrected) (log10(CPM+1)); higher = more efficient recombination; sequences stand for … in AGTGCAGAGAAAATCGGCCAGTTTTCTCTGCCTGCAGTCCGCATGCCGT…AGATTTATGCAGCGGACTGCCTTTCTCCCAAAGTGATAAACCGGACAGTATCATGGACCGGTTTTCCCGGTAATCCGTATTTGCAAGGTTGGTTTCACT; site = the 11-nt target
Method in brief: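 This pooled E. coli screen matched targets with IS621 bridge RNA target-binding loops. Plating was done in duplicate on chloramphenicol/ampicillin LB agar as a control and on chloramphenicol/ampicillin/kanamycin plus 0.1 mM IPTG. Recombination efficiency reflects barcode counts at recombinant junctions as counts per million, averaged and control-corrected. The figures are log10(CPM+1).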
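Also: IS621 recombinase and bridge RNA in Escherichia coli cells.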

Sequence | recombinant barcode read abundance (log10)
CAGTCTGCTTGGGTTCTAACCTGTTGCCT (site CAATCTGCTAG) | 0.141
CAGTCTGCTTGGGTTCTAACCTGTTGCCT (site CACTCTGCTAG) | 0.0321
CAGTCTGCTTGGGTTCTAACCTGTTGCCT (site CAGTCTGCTAG) | 0.512
CAGTCTGCTTGGGTTCTAACCTGTTGCCT (site CATTCTGCTAG) | 0.182
CAGTTAGCTTGGGTTCTAACCTGTTGCCT (site CAGTTAGCTAG) | 0.642
CAGTTAGCTTGGGTTCTAACCTGTTGCCT (site CAGTTCGCTAG) | 0.182
CAGTTAGCTTGGGTTCTAACCTGTTGCCT (site CAGTTGGCTAG) | 0.0405
CAGTTAGCTTGGGTTCTAACCTGTTGCCT (site CAGTTTGCTAG) | 0.192
CAGTTGGCTTGGGTTCTAACCTGTTGCCT (site CAGTTAGCTAG) | 0.04
CAGTTGGCTTGGGTTCTAACCTGTTGCCT (site CAGTTCGCTAG) | 0.0864
CAGTTGGCTTGGGTTCTAACCTGTTGCCT (site CAGTTGGCTAG) | 1.01
CAGTTGGCTTGGGTTCTAACCTGTTGCCT (site CAGTTTGCTAG) | 0.232
CATAGACCTTGGGTTCTAACCTGTTGCAT (site CATAGACCTAT) | 1.82
CATAGACCTTGGGTTCTAACCTGTTGCAT (site CATAGCCCTAT) | 0.0625
CATAGACCTTGGGTTCTAACCTGTTGCAT (site CATAGGCCTAT) | 0.0233
CATAGACCTTGGGTTCTAACCTGTTGCAT (site CATAGTCCTAT) | 0.0411
CATAGACCTTGGGTTCTAACCTGTTGCCT (site CATAGACCTAG) | 1.45
CATAGACCTTGGGTTCTAACCTGTTGCCT (site GATAGACCTAG) | 0.00901
CATAGATCTTGGGTTCTAACCTGTTGCTT (site CAAAGATCTAA) | 0.271
CATAGATCTTGGGTTCTAACCTGTTGCTT (site CACAGATCTAA) | 0.385
CATAGATCTTGGGTTCTAACCTGTTGCTT (site CAGAGATCTAA) | 0.0253
CATAGATCTTGGGTTCTAACCTGTTGCTT (site CATAGATCTAA) | 0.119

Sequence | recombinant barcode read abundance (log10)
CATAGCCCTTGGGTTCTAACCTGTTGCAT (site CATAGACCTAT) | 0.176
CATAGCCCTTGGGTTCTAACCTGTTGCAT (site CATAGCCCTAT) | 1.11
CATAGCCCTTGGGTTCTAACCTGTTGCAT (site CATAGGCCTAT) | 0.117
CATAGCCCTTGGGTTCTAACCTGTTGCAT (site CATAGTCCTAT) | 0.0192
CATATCCCTTGGGTTCTAACCTGTTGCAT (site CATATCCCTAT) | 1.33
CATATCCCTTGGGTTCTAACCTGTTGCAT (site CTAATCCCTAT) | 0.03
CATATGACTTGGGTTCTAACCTGTTGCCT (site CATATGACTAG) | 1.2
CATATGACTTGGGTTCTAACCTGTTGCCT (site TCAGGAGCTTA) | 0.126
CATCATTCTTGGGTTCTAACCTGTTGCCT (site CATAATTCTAG) | 0.144
CATCATTCTTGGGTTCTAACCTGTTGCCT (site CATCATTCTAG) | 0.215
CATCATTCTTGGGTTCTAACCTGTTGCCT (site CATGATTCTAG) | 0.118
CATCATTCTTGGGTTCTAACCTGTTGCCT (site CATTATTCTAG) | 0
CATCCGACTTGGGTTCTAACCTGTTGCCT (site CATCCGACTAG) | 0.92
CATCCGACTTGGGTTCTAACCTGTTGCCT (site CATCCGCCTAG) | 0.163
CATCCGACTTGGGTTCTAACCTGTTGCCT (site CATCCGGCTAG) | 0.33
CATCCGACTTGGGTTCTAACCTGTTGCCT (site CATCCGTCTAG) | 0.0237
CATCCTCCTTGGGTTCTAACCTGTTGCTG (site CATCCTACTCC) | 0.463
CATCCTCCTTGGGTTCTAACCTGTTGCTG (site CATCCTCCTCA) | 0.666
CATCGGACTTGGGTTCTAACCTGTTGCAA (site CATCGGACTTT) | 1.14
CATCGGACTTGGGTTCTAACCTGTTGCAA (site GGCTAACCTAG) | 0.336
CATGACACTTGGGTTCTAACCTGTTGCCT (site CATGACACTAG) | 2.45
CATGACACTTGGGTTCTAACCTGTTGCCT (site CATGCCGCTAG) | 0.0486

Sequence | recombinant barcode read abundance (log10)
CATGCTACTTGGGTTCTAACCTGTTGCTC (site CATGCGACTCA) | 0.191
CATGCTACTTGGGTTCTAACCTGTTGCTC (site CATGCTACTGA) | 0.627
CATGTGCCTTGGGTTCTAACCTGTTGCCT (site CATGTGCCTAG) | 1.89
CATGTGCCTTGGGTTCTAACCTGTTGCCT (site TATGCGCCTAG) | 0.329
CATTATCCTTGGGTTCTAACCTGTTGCGT (site CATTATCCTAC) | 1.59
CATTATCCTTGGGTTCTAACCTGTTGCGT (site CATTGTCCTAC) | 0.0752
CATTCCTCTTGGGTTCTAACCTGTTGCCT (site CATTCCTCTAG) | 0.0779
CATTCCTCTTGGGTTCTAACCTGTTGCCT (site CCTTCCTCTAG) | 0.122
CATTCCTCTTGGGTTCTAACCTGTTGCCT (site CGTTCCTCTAG) | 0.0677
CATTCCTCTTGGGTTCTAACCTGTTGCCT (site CTTTCCTCTAG) | 0.0613
CATTCGCCTTGGGTTCTAACCTGTTGCGT (site CATTCGCCTAC) | 0.329
CATTCGCCTTGGGTTCTAACCTGTTGCGT (site TGGCTAGCTGT) | 0.138
CATTGCCCTTGGGTTCTAACCTGTTGCCT (site CATTGCCCTAG) | 0.234
CATTGCCCTTGGGTTCTAACCTGTTGCCT (site CCTTGCCCTAG) | 0.2
CATTGCCCTTGGGTTCTAACCTGTTGCCT (site CGTTGCCCTAG) | 0.242
CATTGCCCTTGGGTTCTAACCTGTTGCCT (site CTTTGCCCTAG) | 0.0205
CATTGGACTTGGGTTCTAACCTGTTGCTT (site AATTGGACTAA) | 0.222
CATTGGACTTGGGTTCTAACCTGTTGCTT (site CATTGGACTAA) | 0.371
CATTGGACTTGGGTTCTAACCTGTTGCTT (site GATTGGACTAA) | 0.023
CATTGGACTTGGGTTCTAACCTGTTGCTT (site TATTGGACTAA) | 0.111
CATTGTACTTGGGTTCTAACCTGTTGCTA (site CATCGGACTTA) | 0.104
CATTGTACTTGGGTTCTAACCTGTTGCTA (site CATTGTACTTA) | 0.457

Sequence | recombinant barcode read abundance (log10)
CCAAAGACTTGGGTTCTAACCTGTTGCAT (site CCAAAGACTAT) | 0.523
CCAAAGACTTGGGTTCTAACCTGTTGCAT (site CTAAAGACTGT) | 0.334
CCAACCGCTTGGGTTCTAACCTGTTGCCT (site CAAACCGCTAG) | 0.0169
CCAACCGCTTGGGTTCTAACCTGTTGCCT (site CCAACCGCTAG) | 0.423
CCAACCGCTTGGGTTCTAACCTGTTGCCT (site CGAACCGCTAG) | 0.043
CCAACCGCTTGGGTTCTAACCTGTTGCCT (site CTAACCGCTAG) | 0.0644
CCAAGCCCTTGGGTTCTAACCTGTTGCCT (site CCAAGCACTAG) | 0.202
CCAAGCCCTTGGGTTCTAACCTGTTGCCT (site CCAAGCCCTAG) | 0.142
CCAAGCCCTTGGGTTCTAACCTGTTGCCT (site CCAAGCGCTAG) | 0.0593
CCAAGCCCTTGGGTTCTAACCTGTTGCCT (site CCAAGCTCTAG) | 0.0835
CCAAGGACTTGGGTTCTAACCTGTTGCCT (site CCAAGGACTAG) | 0.348
CCAAGGACTTGGGTTCTAACCTGTTGCCT (site CCACGGACTAG) | 0.0394
CCAAGGACTTGGGTTCTAACCTGTTGCCT (site CCAGGGACTAG) | 0.47
CCAAGGACTTGGGTTCTAACCTGTTGCCT (site CCATGGACTAG) | 0.0382
CCAAGGGCTTGGGTTCTAACCTGTTGCTG (site CCAAGGGCTCA) | 1.31
CCAAGGGCTTGGGTTCTAACCTGTTGCTG (site CCAAGGGCTCC) | 0.136
CCAAGGGCTTGGGTTCTAACCTGTTGCTG (site CCAAGGGCTCG) | 0.0611
CCAAGGGCTTGGGTTCTAACCTGTTGCTG (site CCAAGGGCTCT) | 0.727
CCACAGTCTTGGGTTCTAACCTGTTGCCT (site CCACAGTCTAG) | 1.44
CCACAGTCTTGGGTTCTAACCTGTTGCCT (site CCACCGTCTAG) | 0.117
